Experimental data taken from paper PMC11321563, “Enolase inhibitors as therapeutic leads for Naegleria fowleri infection” (PLOS Pathogens, 2024).
Entries after “also recorded” stand apart in the source; their conditions may differ. Where two headings read alike, the source gives them in different places.

What was measured:
N. fowleri ENO (NfENO) = N. fowleri ENO (NfENO) (Naegleria fowleri, UniProt A0A6A5BXC3); assay: NfENO coupled enzyme activity/inhibition assay (PK/LDH, NADH fluorescence); assay type: biochemical
Description: (§1) ENO was assayed in triplicate using a coupled reaction to measure enzyme activity. Briefly, enzyme (50 nM) in assay buffer (100 mM HEPES, pH 8.0, 3.3 mM MgSO4) was loaded in black 96-well plates with or without inhibitors. To start the reaction, substrate buffer (3.75 mM 2-PG, 1.75 mM ADP, 1 U of pyruvate kinase/lactate dehydrogenase, and 0.4 mM NADH in assay buffer) was added to each well. The rate of reduction in fluorescence (excitation: 360 nm; emission: 460 nm), a measure of NAD production, was then scored on a Biotek Synergy H1 microplate reader every 20 seconds for 4 minutes. Kinetic analyses were performed with Prism 9.0 (GraphPad Software, San Diego, CA) using the Michaelis-Menten model. For assays involving inhibitors, compounds (in DMSO) were incubated at RT with enzyme in assay buffer […] for 15 minutes prior to initiation of the reaction by addition of the substrate. All assays were performed in triplicate with vehicle control (DMSO) included.

[1] = target: human ENO2 (gamma-enolase, HsENO2) (Homo sapiens, UniProt P09104); assay: Human ENO2 coupled enzyme inhibition assay; assay type: biochemical
Description: as §1

[2] = tested on: N. fowleri strain Nf69 (ATCC 30215) trophozoites; assay: N. fowleri trophozoite viability, CellTiter-Glo, 48 hr; assay type: cell-based, Naegleria fowleri; conditions: for EC50: Naegleria fowleri
Description: N. fowleri strain Nf69 (ATCC 30215) or strain TY (ATCC 30107) trophozoites and N. gruberi strain NEG-M (ATCC 30224) were cultured axenically as previously described. Briefly, parasites were seeded at 1 x 10^4 cells/mL (N. fowleri) or 5 x 10^3 cells/mL (N. gruberi) in 100 μL of the indicated medium in white TC-treated 96-well plates (Thermo Scientific Nunc Microwell 136101). For assays under standard growth conditions ("+ glc"), N. fowleri cells were seeded into Nelson’s Complete Media (NCM, 0.17% liver infusion broth (BD Difco, Franklin Lakes, NJ), 0.17% glucose, 0.012% sodium chloride, 0.0136% potassium phosphate monobasic, 0.0142% sodium phosphate dibasic, 0.0004% calcium chloride, 0.0002% magnesium sulfate, 10% heat-inactivated fetal bovine serum (FBS), 1% penicillin-streptomycin) at 37°C. For assays in modified medium ("-glc/+gly"), cells were seeded into the media without glucose but supplemented with 10 mM glycerol. For standard growth of N. gruberi, cells were seeded into PYNFH-complete media (1.0% peptone, 1.0% yeast extract, 0.1% yeast nucleic acid, 0.0015% folic acid, 0.0001% hemin, 0.0362% potassium phosphate monobasic, 0.05% disodium phosphate, 10% heat-inactivated fetal bovine serum (FBS), 1% penicillin-streptomycin) at 25°C. For determination of EC50 value, concentrations of drug ranging from 0.07826–5 μM were used. After culturing for 48 hr (37°C, 5% CO2 for N. fowleri, 25°C, 5% CO2 for N. gruberi) in the presence of compound or vehicle, plates were equilibrated to RT for 15 min and CellTiter Glo reagent (Promega, Madison, WI, USA) was added followed by orbital shaking for 2 min. After an additional incubation (RT, 10 min), luminescence was scored on a BioTek Synergy H1 mircoplate reader. Parasite density was scored and kinetic analyses were performed with Prism 9.0 (GraphPad Software, San Diego, CA) using the Michaelis-Menten model. All viability assays were performed in technical triplicates with at least three biological replicates.

[3] = HEK-293 cytotoxicity, CellTiter Blue, 48 hr; assay type: cell-based; conditions: human, HEK-293 cells (ATCC CRL-1573); HEK-293, 48 hr; no superscript in Fig 1; read-out: Human cell line CC50
Description: HEK-293 (ATCC CRL-1573) cells were cultured axenically in Dulbecco’s Modified Eagle Medium with 4.5g/L D-glucose, L-glutamine (Gibco 11965) and 10% fetal bovine serum (FBS) at 37°C, 5% CO2. […] After a 48 hr incubation (37°C, 5% CO2), CellTiter Blue reagent (Promega, Madison, WI, USA) was added to each well. After an additional 3-hour incubation (37°C, 5% CO2) with reagent, fluorescence was scored on a a BioTek Synergy H1 mircoplate reader and percent growth inhibition values were solved.

ENO1-/- glioma cells = conditions: read-out: EC50 against ENO1-/- glioma cells; cited from earlier work
[4] = tested on: N. fowleri strain Nf69 (ATCC 30215) trophozoites; assay: N. fowleri trophozoite viability, CellTiter-Glo, 48 hr; assay type: cell-based; conditions: Naegleria fowleri, ATCC30215, read-out: EC50 after short exposure
[5] = tested on: N. fowleri strain 69 trophozoites; assay: Rat model of N. fowleri infection, nasal instillation treatment; assay type: in vivo, Naegleria fowleri
From the text: Twenty-four CD rats (12 females, 12 males, aged 42–48 days, Charles River) housed in pairs were infected by nasal instillation with 2.5 x 10^5 N. fowleri strain 69 trophozoites that had been isolated after passage through mice to ensure virulence. Rats were provided unlimited food and water throughout the duration of the experiment. The two groups consisted of equal numbers of males and females. […] Rodents were monitored carefully and euthanized when symptoms of infection, including failure to respond to stimuli or seizures, were evident. After 17 days, surviving animals were sacrificed and brains were removed to assess cure.

[6] = tested on: intracranial orthotopic ENO1-deficient tumors; parameters: method as in PMID 33230295; conditions: cited from earlier work
[7] = parameters: method as in PMID 33230295; conditions: rats; cited from earlier work
N. gruberi = N. gruberi growth; assay type: cell-based, Naegleria gruberi
Description: N. fowleri strain Nf69 (ATCC 30215) or strain TY (ATCC 30107) trophozoites and N. gruberi strain NEG-M (ATCC 30224) were cultured axenically as previously described. Briefly, parasites were seeded at 1 x 10^4 cells/mL (N. fowleri) or 5 x 10^3 cells/mL (N. gruberi) in 100 μL of the indicated medium in white TC-treated 96-well plates (Thermo Scientific Nunc Microwell 136101). For assays under standard growth conditions ("+ glc"), N. fowleri cells were seeded into Nelson’s Complete Media (NCM, 0.17% liver infusion broth (BD Difco, Franklin Lakes, NJ), 0.17% glucose, 0.012% sodium chloride, 0.0136% potassium phosphate monobasic, 0.0142% sodium phosphate dibasic, 0.0004% calcium chloride, 0.0002% magnesium sulfate, 10% heat-inactivated fetal bovine serum (FBS), 1% penicillin-streptomycin) at 37°C. For assays in modified medium ("-glc/+gly"), cells were seeded into the media without glucose but supplemented with 10 mM glycerol. […] After an additional incubation (RT, 10 min), luminescence was scored on a BioTek Synergy H1 mircoplate reader. Parasite density was scored and kinetic analyses were performed with Prism 9.0 (GraphPad Software, San Diego, CA) using the Michaelis-Menten model. […]

[8] = parameters: method as in PMID 33230295; conditions: non-human primates, cited from earlier work
Entamoeba histolytica = Entamoeba histolytica growth; assay type: cell-based
Human cell line = conditions: read-out: Human cell line CC50, cited from earlier work
[9] = tested on: ENO1-rescued glioma and other control cells; parameters: method as in PMID 33230295; conditions: cited from earlier work
N. fowleri trophozoites = assay: Unbiased metabolomics of amoebae after HEX treatment (2DLC-MS); assay type: cell-based, Naegleria fowleri; conditions: cells grown in glycerol, HEX-treated vs untreated
Description: For unbiased metabolomics analyses, N. fowleri trophozoites were grown to near 100% confluency in 6-well TC-treated plates (Thermo Scientific Nunclon Delta Surface 140685). […] Samples were then washed three times in RT PBS prior to the addition of ice-cold CH3CN. Plates were then incubated at –20°C for 20 min, followed by the addition of ice-cold nanopure H2O and removal of the solution to sterile microcentrifuge tubes. This process was repeated twice, and the total volume of extraction material was adjusted to 2.5 x 10^6 cell equivalents per sample. Tubes were stored at –80°C prior to analysis.
Each cell sample was vortexed with glass beads for 5 min in a MM200 Mix Grinder (Retsch USA, Newtown, PA, USA). The mixture was centrifuged at 14,000 rpm for 20 min at 4°C. The supernatant was transferred into a new tube and lyophilized overnight. The dried sample was reconstituted in 60 μL 50% CH3CN and analyzed in random order on a parallel two-dimensional liquid chromatography-mass spectrometry (2DLC-MS) system, a Thermo DIONEX UltiMate 3000 HPLC system (Thermo Fisher Scientific, Waltham, MA, USA) coupled with a Thermo Q Exactive HF Hybrid Quadrupole-Orbitrap Mass Spectrometer (Thermo Fisher Scientific, Waltham, MA, USA). […] Each sample was analyzed by the 2DLC-MS under both positive (+) and negative (–) modes to obtain full MS data for metabolite quantification. […]

[10] = Intranasal dose-finding tolerability in uninfected CD rats; assay type: in vivo, rat; conditions: 1.6, 16, or 120 mg/kg HEX in PBS once daily for five days
Balamuthia mandrillaris = Balamuthia mandrillaris growth; assay type: cell-based
[11] = recombinant NfENO, 50 nM enzyme, 15 min preincubation with compound, read-out: NfENO IC50
[12] = 15 min preincubation with compound, read-out: HsENO2 IC50
[13] = ATCC30215, 48 h, read-out: N. fowleri EC50
[14] = value with superscript 3 in Fig 1, footnote not given, ref superscript 3

human ENO2 (gamma-enolase, HsENO2), sequence (P09104 whole entry): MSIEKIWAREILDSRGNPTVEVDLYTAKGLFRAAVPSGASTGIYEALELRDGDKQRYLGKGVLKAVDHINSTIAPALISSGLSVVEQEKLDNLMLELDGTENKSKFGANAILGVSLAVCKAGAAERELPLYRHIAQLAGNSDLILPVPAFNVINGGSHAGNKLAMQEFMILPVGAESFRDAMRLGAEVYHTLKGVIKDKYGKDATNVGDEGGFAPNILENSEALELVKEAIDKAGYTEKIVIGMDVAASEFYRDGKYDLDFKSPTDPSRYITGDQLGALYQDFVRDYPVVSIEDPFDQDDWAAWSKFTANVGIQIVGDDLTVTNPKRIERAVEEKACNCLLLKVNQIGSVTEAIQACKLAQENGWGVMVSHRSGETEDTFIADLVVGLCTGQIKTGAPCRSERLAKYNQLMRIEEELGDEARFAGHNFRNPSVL
N. fowleri ENO (NfENO), sequence (A0A6A5BXC3 entry or part of it): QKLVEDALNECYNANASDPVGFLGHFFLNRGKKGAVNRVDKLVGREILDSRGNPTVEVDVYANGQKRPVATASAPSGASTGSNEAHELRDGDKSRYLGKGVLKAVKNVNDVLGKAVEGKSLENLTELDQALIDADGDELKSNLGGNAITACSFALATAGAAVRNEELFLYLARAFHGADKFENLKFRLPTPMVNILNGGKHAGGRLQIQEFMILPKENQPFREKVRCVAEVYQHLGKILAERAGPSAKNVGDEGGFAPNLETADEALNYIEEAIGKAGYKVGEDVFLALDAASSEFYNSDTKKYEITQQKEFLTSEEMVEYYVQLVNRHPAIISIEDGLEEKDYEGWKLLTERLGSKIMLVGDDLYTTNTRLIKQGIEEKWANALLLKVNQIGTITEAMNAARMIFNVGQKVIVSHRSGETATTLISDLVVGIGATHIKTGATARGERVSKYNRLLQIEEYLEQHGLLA

## O=C(O)[C@@H](CO)OP(=O)(O)O [2-PG, 2-phosphoglycerate]
N. fowleri ENO (NfENO); truncation residues 44–512, NafoA.00379.a.B5.PW38978, read-out: apparent KM for 2-PG
  Km: 923 ± 0.336 µM

## O=C1C(P(=O)(O)O)CCN1OCc1ccccc1 (centres unmarked) [Benzyl- deoxy- SF2312]
N. fowleri ENO (NfENO); [11]
  IC50: > 10000 nM
[1]; [12]
  IC50: > 10000 nM
[2]; [13]
  EC50: > 10000 nM

## O=C1C(P(=O)(O)O)CCCCN1OCc1ccccc1 (centres unmarked) [Benzyl-HEPTA]
N. fowleri ENO (NfENO); [11]
  IC50: > 10000 nM
[1]; [12]
  IC50: > 10000 nM
[2]; [13]
  EC50: > 10000 nM

## O=C1C(P(=O)(O)O)CCCN1OCc1ccccc1 (centres unmarked) [BenzylHEX]
N. fowleri ENO (NfENO); at 10 μM
  impact on NfENO: no impact
N. fowleri ENO (NfENO); [11]
  IC50: > 10000 nM
[1]; [12]
  IC50: > 10000 nM
[2]; [13]
  EC50: > 10000 nM

## CC(C)OC(=O)[C@H](C)NP(=O)(OCOC(=O)C(C)(C)C)C1CCCN(O)C1=O (some centres unmarked) [CDP25]
N. fowleri ENO (NfENO)
  IC50: > 10000 nM
[3]
  CC50 at 48 h: > 5000 nM
[2]; [13]
  EC50: 310 ± 150 nM

## O=C1C(P(=O)(O)O)CCN1O (centres unmarked) [Deoxy-SF2312, (1-hydroxy-2-oxopyrrolidin-3-yl) phosphonic acid]
N. fowleri ENO (NfENO)
  IC50: 1200 ± 470 nM
[1]
  IC50: 100 ± 40 nM
[1]; ratio of IC50 values
  fold more potent against ENO2 than NfENO: more than 10 fold
[3]
  CC50 at 48 h: > 200000 nM
[2]; [13]
  EC50: 950 ± 200 nM

## O=C1C(P(=O)(O)O)CCCCN1O (centres unmarked) [HEPTA, (1-hydroxy-2-oxoazepan-3-yl) phosphonic acid]
N. fowleri ENO (NfENO)
  IC50: 4700 ± 1400 nM
[1]
  IC50: 5800 ± 880 nM
[2]; [13]
  EC50: > 10000 nM

## O=C1C(P(=O)(O)O)CCCN1O (centres unmarked) [HEX, (1-hydroxy-2-oxopiperidin-3-yl) phosphonic acid]
ENO1-/- glioma cells
  EC50: 1300 nM
[4]
  EC50: 8060 ± 2600 nM
[5]; HEX 3 mg/kg nasal instillation for 10 days, >50% of the population survived
  median survival time: indeterminable; also recorded: undefined
[5]; day 11, HEX 3 mg/kg nasal instillation once a day for 10 days from day 2
  animals remaining at conclusion of treatment: 11 of 12
[5]; of the eight HEX-treated survivors
  survivors with brains positive for amoebae by culture: six of the eight and six
[6]
  intracranial tumor growth: almost completely inhibited intracranial tumor growth
[7]
  plasma elimination half-life: about 60 minutes
N. fowleri ENO (NfENO)
  IC50: 140 ± 40 nM
  mode of NfENO inhibition: competitive inhibitor
[1]
  IC50: 360 ± 40 nM
N. gruberi
  impact on growth: no impact
[8]; IP 300 mg/kg, for several hours
  plasma concentrations: about 750 μM
[8]; IP
  IP dose tolerated without adverse effects: 300 mg/kg
Entamoeba histolytica
  impact on growth: no impact
Human cell line; [14]
  CC50: > 300000 nM
[9]
  CC50: > 300000 nM
N. fowleri trophozoites
  decrease in pyruvate levels: ~50%
[10]
  adverse effects of intranasal instillation: none of the rats had any noticeable reaction to treatment
Balamuthia mandrillaris
  impact on growth: no impact; also recorded: inactive
[2]; [13]
  EC50: 210 ± 20 nM
[2]; ATCC30215, 336 h, read-out: EC50 of trophozoites cultured from brain of HEX-treated rodent
  EC50: 90 ± 40 nM
[2]; ATCC30215, 336 h, read-out: EC50 of trophozoites cultured from brain of PBS-treated (Vehicle) rodent
  EC50: 100 ± 80 nM
[2]; ATCC30215, 504 h, read-out: EC50 after removal of selection
  EC50: 110 ± 10 nM
[2]; ATCC30215, read-out: EC50 in glycerol medium
  EC50: 2500 ± 110 nM
[2]; ATCC30215, read-out: EC50 of HEX-adapted amoebae
  EC50: 570 ± 300 nM

## CC(C)(C)C(=O)OCOP(=O)(OCOC(=O)C(C)(C)C)C1CCCN(O)C1=O (centres unmarked) [POMHEX]
N. fowleri ENO (NfENO); [11]
  IC50: > 10000 nM
[1]; [12]
  IC50: > 10000 nM
Human cell line; [14]
  CC50: > 4900 nM
[2]; [13]
  EC50: 700 ± 100 nM

## CC(C)(C)C(=O)OCOP(=O)(OCOC(=O)C(C)(C)C)C1CC(O)N(O)C1=O (centres unmarked) [POMSF]
N. fowleri ENO (NfENO); [11]
  IC50: > 10000 nM
[1]; [12]
  IC50: > 10000 nM
[2]; EC50 ratio
  increase in amoebicidal potency relative to SF2312: about 2.4 fold
[2]; [13]
  EC50: 660 ± 90 nM

## O=C1C(P(=O)(O)O)CC(O)N1O (centres unmarked) [SF2312, (1,5-dihydroxy-2-oxopyrrolidin-3-yl) phosphonic acid, reference compound]
N. fowleri ENO (NfENO)
  IC50: 310 ± 70 nM
[1]
  IC50: 630 ± 10 nM
Human cell line; value with superscript 1 in Fig 1, footnote not given, ref superscript 1
  CC50: > 200000 nM
[2]; [13]
  EC50: 1600 ± 110 nM
